Results as given in patent US20190225650A1, “PEPTIDOMIMETIC MACROCYCLES AND USE THEREOF IN REGULATING HIF1ALPHA” (AILERON THERAPEUTICS, INC., priority 2013, published 2019).
Bridge positions count the residues as written; N and C are the ends. Square brackets hold non-standard residues; d marks the D form. Peptide text beside a SMILES is read from it. R8 = C=CCCCCCC[C@@](C)(N)C(=O)O; S5 = C=CCCC[C@](C)(N)C(=O)O; Nle = CCCC[C@H](N)C(=O)O

Key:
[1] = system: HRE-bla ME-180 cells; experiment: Reporter gene assay (HRE-bla ME-180 HIF reporter, GeneBLAzer); format: cell-based, human; conditions: for EC50: 24 hour normoxia
In short: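 A FRET β-lactamase readout of HIF transcription was used. After compound treatment in 0.3% DMSO/media under normoxic conditions, 20 μl of 6× LiveBLAzer-FRET B/G (CCF4-AM) substrate was added. Plates sat 3 hr at room temperature in the dark and were read at 409 Ex/460Em and 409Ex/530Em on a Synergy 2. Inhibition was compared against DMSO vehicle controls, with chetomin as positive control.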

[2] = system: HRE-bla ME-180 cells; experiment: Cell proliferation assay (viability, MTT, 1% FBS); format: cell-based, human
In short: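 Viable cell number was measured with the CellTiter 96 (MTT) kit after compounds were applied for a 16 h normoxic (21% O2) pretreatment, followed by further normoxic or hypoxic (1% O2) culture. Cells: 2×10^4 ME-180 per well, Opti-MEM + 1% FBS, 0.5% DMSO vehicle.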

[3] = target: T1, flag-tagged HIF1α (AA 786-826) / His6-tagged p300 (AA 323-423) complex (Homo sapiens, UniProt Q09472); experiment: HIF1α p300 displacement assay (TR FRET, +CHAPS); format: binding; conditions: read-out: IC50 (nM) (HIF1α_p300 Displacement + CHAPS)
T1 construct: His6-tagged p300 (AA 323-423); made in house; host or cells: E. coli (pETDuet vector)
In short: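 In this TR-FRET displacement format, peptides compete HIF1α C-terminal transactivation domain off p300-CH. They were preincubated 1 h at room temperature with 300 nM complex in HEPES pH 7.4/NaCl buffer with 7.5 mM CHAPS and 1 mM DTT. Anti-His-D2 (4 nM) and anti-Flag-K (0.5 μM) followed for 2 h, and a one-site fit of the fluorescence ratio gave IC50.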

Row | Structure (SMILES) | 18 h Avg % max inhibition at top conc (HIF Rptr-24 hrs normoxia) (μM) [1] | EC50 [1] [µM] | Viability 1% FBS AVG (MTT V3-24 hr Normoxia) (μM) [2] | IC50 [3] [nM]
1 | CCCC[C@H](NC(=O)[C@H](CCC(=O)O)NC(=O)[C@]1(C)CCCC=CCCCCCC[C@@](C)(NC(=O)[C@H](CCC(=O)O)NC(=O)[C@H](C)NC(=O)[C@@H](NC(=O)[C@H](Cc2ccccc2)NC(C)=O)[C@@H](C)CC)C(=O)N[C@@H](C(C)C)C(=O)N[C@@H](CC(C)C)C(=O)N[C@@H](CCCC)C(=O)N[C@@H](CO)C(=O)N[C@@H](CC(C)C)C(=O)N[C@@H](C(C)C)C(=O)N1)C(=O)N[C@@H](C)C(=O)N[C@@H](CC(C)C)C(=O)N[C@@H](CC(=O)O)C(=O)N[C@@H](C)C(=O)N[C@H](C(N)=O)[C@@H](C)CC [SP-192] (Ac-FIAE[R8]VL[Nle]SLV[S5]E[Nle]ALDAI-NH2; staple 5-12) | ++ (≤10 but <25: ++) | > 30 | ++++ (≥30: ++++) | 200 to 400
2 | CCCC[C@@H]1NC(=O)[C@H](CC(C)C)NC(=O)[C@H](CC(N)=O)NC(=O)[C@@](C)(NC(=O)[C@H](CCC(=O)O)NC(=O)[C@H](CC(=O)O)NC(=O)[C@@H](NC(=O)[C@H](Cc2ccccc2)NC(C)=O)[C@@H](C)CC)CCCC=CCCCC2(CCCC=CCCC[C@](C)(C(=O)N[C@@H](CCCC)C(=O)N[C@@H](C)C(=O)N[C@@H](CC(C)C)C(N)=O)NC(=O)[C@H]([C@@H](C)CC)NC(=O)[C@H](C(C)C)NC(=O)[C@H](CC(C)C)NC2=O)NC1=O (stereo partly shown) [SP-208] | +++ (≤25 but <50: +++) | 5 to 15 | ++ (≤5 but <15: ++) | > 700
3 | CCCC[C@H](NC(=O)[C@H](CCC(=O)O)NC(=O)[C@]1(C)CCCC=CCCCCCC[C@@](C)(NC(=O)[C@H](CCC(=O)O)NC(=O)[C@H](C)NC(=O)[C@@H](NC(=O)[C@H](Cc2ccccc2)NC(C)=O)[C@@H](C)CC)C(=O)N[C@@H](C(C)C)C(=O)N[C@@H](CC(C)C)C(=O)N[C@@H](CCCC)C(=O)N[C@@H](CO)C(=O)N[C@@H](CC(C)C)C(=O)N[C@@H](C(C)C)C(=O)N1)C(=O)N[C@@H](C)C(=O)N[C@@H](CC(C)C)C(N)=O [SP-197] (Ac-FIAE[R8]VL[Nle]SLV[S5]E[Nle]AL-NH2; staple 5-12) | ++++ (≥50: ++++) | 5 to 15 | ++++ (≥30: ++++) | > 700
4 | CCCC[C@H](NC(=O)[C@H](Cc1ccccc1)NC(=O)[C@@H](NC(=O)[C@H](C)NC(=O)[C@H](CCC(N)=O)NC(=O)[C@H](CC(=O)O)NC(=O)[C@@H](NC(=O)[C@H](Cc1ccccc1)NC(C)=O)[C@@H](C)CC)C(C)C)C(=O)N[C@@]1(C)CCCC=CCCC[C@@](C)(C(=O)N[C@@H](CCCC)C(=O)N[C@@H](C)C(=O)N[C@@H](CC(C)C)C(=O)N[C@@H](CC(C)C)C(N)=O)NC(=O)[C@H]([C@@H](C)CC)NC(=O)[C@H](C(C)C)NC(=O)[C@H](CO)NC1=O [SP-252] (Ac-FIDQAVF[Nle][S5]SVI[S5][Nle]ALL-NH2; staple 9-13) | ++++ (≥50: ++++) | ≤ 5 | ++ (≤5 but <15: ++) | > 700
5 | CCCC[C@H](NC(=O)[C@H](CC(C)C)NC(=O)[C@@H](NC(=O)[C@H](CCC(=O)O)NC(=O)[C@H](CCC(=O)O)NC(=O)[C@H](CC(=O)O)NC(=O)[C@@H](NC(=O)[C@H](CC(N)=O)NC(=O)[C@@H](NC(=O)[C@H](CCC(N)=O)NC(=O)[C@H](CC(=O)O)NC(=O)[C@H](CC(C)C)NC(=O)[C@H](C)NC(=O)[C@]1(C)CCCC=CCCC[C@](C)(NC(=O)CNC(=O)[C@H](CCC(N)=O)NC(=O)[C@H](CC(C)C)NC(=O)[C@H](CC(C)C)NC(C)=O)C(=O)N[C@@H](CCC(=O)O)C(=O)N[C@@H](CC(C)C)C(=O)N[C@@H](CC(C)C)C(=O)N1)C(C)C)[C@@H](C)CC)C(C)C)C(=O)N[C@@]1(C)CCCC=CCCC[C@@](C)(C(=O)N[C@@H](CCCC)C(=O)NCC(N)=O)NC(=O)[C@H]([C@@H](C)CC)NC(=O)[C@H](C(C)C)NC(=O)[C@H](CC(C)C)NC1=O [SP-338] (Ac-LLQG[S5]ELL[S5]ALDQVNIDEEVL[Nle][S5]LVI[S5][Nle]G-NH2; staple 5-9, 23-27) | +++ (≤25 but <50: +++) | > 30 | ++++ (≥30: ++++) | > 700
6 | CCCC[C@H](NC(=O)[C@H](Cc1ccccc1)NC(=O)[C@@H](NC(=O)[C@H](CCC(=O)O)NC(=O)[C@H](CCC(=O)O)NC(=O)[C@H](CC(=O)O)NC(C)=O)C(C)C)C(=O)N[C@@]1(C)CCCC=CCCC[C@@](C)(C(=O)N[C@@H](CCCC)C(=O)N[C@@H](C)C(=O)N[C@@H](CC(C)C)C(=O)N[C@@H](CC(C)C)C(N)=O)NC(=O)[C@H]([C@@H](C)CC)NC(=O)[C@H](C(C)C)NC(=O)[C@H](CC(C)C)NC1=O [SP-244] (Ac-DEEVF[Nle][S5]LVI[S5][Nle]ALL-NH2; staple 7-11) | ++++ (≥50: ++++) | ≤ 5 | ++++ (≥30: ++++) | > 700
7 | CCCC[C@@H]1NC(=O)[C@H](CC(C)C)NC(=O)[C@H](C(C)C)NC(=O)[C@@](C)(NC(=O)[C@H](CCC(=O)O)NC(=O)[C@H](CC(=O)O)NC(=O)[C@@H](NC(=O)[C@H](Cc2ccccc2)NC(C)=O)[C@@H](C)CC)CCCC=CCCCC2(CCCC=CCCC[C@](C)(C(=O)N[C@@H](CCCC)C(=O)N[C@@H](C)C(=O)N[C@@H](CC(C)C)C(N)=O)NC(=O)[C@H]([C@@H](C)CC)NC(=O)[C@H](C(C)C)NC(=O)[C@H](CC(N)=O)NC2=O)NC1=O (stereo partly shown) [SP-210] | ++++ (≥50: ++++) | 5 to 15 | + (<5: +) | 200 to 400
8 | CC[C@H](C)[C@H](NC(=O)[C@H](CCCNC(=N)N)NC(=O)[C@H](CC(=O)O)NC(=O)[C@H](CC(C)C)NC(=O)[C@H](C)NC(=O)[C@H](CCSC)NC(=O)[C@]1(C)CCCC=CCCC[C@](C)(NC(=O)[C@H](CCSC)NC(=O)[C@H](CC(C)C)NC(=O)[C@@H](NC(=O)[C@H](C)NC(=O)[C@H](CCC(N)=O)NC(=O)[C@H](CC(N)=O)NC(=O)[C@@H](NC(=O)[C@H](Cc2ccccc2)NC(C)=O)[C@@H](C)CC)C(C)C)C(=O)N[C@@H](CC(C)C)C(=O)N[C@@H](C(C)C)C(=O)N[C@@H]([C@@H](C)CC)C(=O)N1)C(N)=O [SP-271] (Ac-FINQAVLM[S5]LVI[S5]MALDRI-NH2; staple 9-13) | +++ (≤25 but <50: +++) | > 30 | ++++ (≥30: ++++) | > 700
9 | CCCC[C@H](NC(=O)[C@H](CCC(=O)O)NC(=O)[C@]1(C)CCCC=CCCCCCC[C@@](C)(NC(=O)[C@H](C)NC(=O)[C@H](CC(=O)O)NC(=O)[C@@H](NC(=O)[C@H](CC(N)=O)NC(=O)[C@@H](NC(=O)[C@H](CCC(N)=O)NC(=O)[C@]2(C)CCCC=CCCC[C@](C)(NC(=O)[C@H](CC(C)C)NC(=O)[C@H](CCC(=O)O)NC(=O)[C@H](CCC(=O)O)NC(=O)CNC(=O)[C@H](CCC(N)=O)NC(=O)[C@H](CC(C)C)NC(=O)[C@H](CC(C)C)NC(C)=O)C(=O)N[C@@H](CCCNC(=N)N)C(=O)N[C@@H](C)C(=O)N[C@@H](CC(C)C)C(=O)N2)C(C)C)[C@@H](C)CC)C(=O)N[C@@H](C(C)C)C(=O)N[C@@H](CC(C)C)C(=O)N[C@@H](CCCC)C(=O)N[C@@H](CO)C(=O)N[C@@H](CC(C)C)C(=O)N[C@@H](C(C)C)C(=O)N1)C(N)=O [SP-362] (Ac-LLQGEEL[S5]RAL[S5]QVNIDA[R8]VL[Nle]SLV[S5]E[Nle]-NH2; staple 8-12, 19-26) | ++++ (≥50: ++++) | 5 to 15 | ++++ (≥30: ++++) | 400 to 700
10 | CCCC[C@H](NC(=O)[C@H](CCC(=O)O)NC(=O)[C@]1(C)CCCC=CCCCCCC[C@@](C)(NC(=O)[C@H](CCC(=O)O)NC(=O)[C@H](CC(=O)O)NC(=O)[C@@H](NC(=O)[C@H](CC(N)=O)NC(=O)[C@@H](NC(=O)[C@H](CCC(N)=O)NC(=O)[C@]2(C)CCCC=CCCC[C@](C)(NC(=O)[C@H](CC(C)C)NC(=O)[C@H](CCC(=O)O)NC(=O)[C@H](CCC(=O)O)NC(=O)[C@H](C)NC(=O)[C@H](CCC(N)=O)NC(=O)[C@H](CC(C)C)NC(=O)[C@H](CC(C)C)NC(C)=O)C(=O)N[C@@H](CCCNC(=N)N)C(=O)N[C@@H](C)C(=O)N[C@@H](CC(C)C)C(=O)N2)C(C)C)[C@@H](C)CC)C(=O)N[C@@H](C(C)C)C(=O)N[C@@H](CC(C)C)C(=O)N[C@@H](CCCC)C(=O)N[C@@H](CO)C(=O)N[C@@H](CC(C)C)C(=O)N[C@@H](C(C)C)C(=O)N1)C(N)=O [SP-367] (Ac-LLQAEEL[S5]RAL[S5]QVNIDE[R8]VL[Nle]SLV[S5]E[Nle]-NH2; staple 8-12, 19-26) | ++++ (≥50: ++++) | ≤ 5 | ++++ (≥30: ++++) | 400 to 700
